Source: patent US11970463B2, “Compounds and their use” (ASTRAZENECA AB, priority 2021, dated 2024)
Values after ≈ are worked out from the molar mass of the structure shown. Read-outs that look alike come from different tables or passages of the source.

Columns and labels:
Solubility (Test E) = type: physicochemical
[1] = Solubility (Test F), McIlvaine buffer pH 6.5; type: physicochemical; conditions: McIlvaine buffer pH 6.5, 25° C., 24 to 72 h, theoretical maximum 200 μM; for solubility: disodium hydrogenphosphate-citric acid (McIlvaine) buffer, 25 °C, pH 6.5, aqueous buffer, thermodynamic from solid
Human NLRP3 [2] = target: T1, Human NLRP3 (Homo sapiens (Human), UniProt Q96P20)
T1 sequence (Q96P20 whole entry): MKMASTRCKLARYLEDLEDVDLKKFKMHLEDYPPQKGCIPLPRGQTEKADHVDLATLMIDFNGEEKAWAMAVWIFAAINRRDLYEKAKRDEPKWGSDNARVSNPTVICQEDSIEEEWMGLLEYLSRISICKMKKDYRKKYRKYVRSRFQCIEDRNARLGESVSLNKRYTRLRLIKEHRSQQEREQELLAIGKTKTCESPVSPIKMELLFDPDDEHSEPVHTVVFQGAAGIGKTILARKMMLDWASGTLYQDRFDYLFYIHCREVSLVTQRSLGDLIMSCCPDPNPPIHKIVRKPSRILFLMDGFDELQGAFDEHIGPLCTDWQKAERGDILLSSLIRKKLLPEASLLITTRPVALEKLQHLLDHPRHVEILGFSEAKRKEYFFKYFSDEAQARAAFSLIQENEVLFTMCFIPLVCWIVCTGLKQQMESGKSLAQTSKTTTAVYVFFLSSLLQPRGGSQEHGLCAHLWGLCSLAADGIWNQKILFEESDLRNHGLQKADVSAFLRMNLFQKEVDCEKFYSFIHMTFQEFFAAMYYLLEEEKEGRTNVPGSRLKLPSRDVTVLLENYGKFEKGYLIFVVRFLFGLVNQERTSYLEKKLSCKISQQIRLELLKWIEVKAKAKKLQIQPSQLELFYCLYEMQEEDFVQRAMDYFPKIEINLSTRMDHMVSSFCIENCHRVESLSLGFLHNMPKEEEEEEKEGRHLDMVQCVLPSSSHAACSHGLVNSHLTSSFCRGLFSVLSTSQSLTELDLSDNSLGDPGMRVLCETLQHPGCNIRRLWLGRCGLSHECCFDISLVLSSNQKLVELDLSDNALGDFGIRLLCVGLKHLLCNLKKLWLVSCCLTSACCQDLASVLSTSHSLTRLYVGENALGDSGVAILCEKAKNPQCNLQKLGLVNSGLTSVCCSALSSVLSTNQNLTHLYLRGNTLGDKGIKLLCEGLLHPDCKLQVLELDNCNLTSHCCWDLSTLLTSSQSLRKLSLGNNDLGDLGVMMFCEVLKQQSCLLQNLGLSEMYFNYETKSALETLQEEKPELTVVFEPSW

Human NLRP3 [3] = target: T1, Human NLRP3; experiment: Human NLRP3 speck formation assay (Test A), nigericin triggered ASC-speck formation in ASC-GFP reporter monocytes
[4] = Test C IC50, IL-1β release, THP-1 cells, LPS 2 μg/mL 24 h, BzATP 1 mM

Structure (SMILES)	solubility [1] [µg/mL]	IC50 (Human NLRP3 [2]; [4]) [nM]	also measured
Oc1cc(C(F)(F)F)ccc1-c1nnc(N[C@@H]2CCCCC[C@H]2O)c2ccccc12 (racemic) [Example 27, rac-(1R,2R)-2-[[4-[2-hydroxy-4-(trifluoromethyl)phenyl]phthalazin-1-yl]amino]cycloheptanol]	2.1 (≈ 5.03 µM)	34	solubility (Solubility (Test E)): 9 µM (≈ 3.76 µg/mL); EC50 (Human NLRP3 [3]): 562 nM
Oc1cccc(C(F)(F)F)c1-c1nnc(N[C@@H]2CCC[C@H](O)C2)c2cnccc12 (racemic) [Example 50, 2-[4-[[(1R,3S)-3-hydroxycyclohexyl]amino]pyrido[3,4-d]pyridazin-1-yl]-3-(trifluoromethyl)phenol]			Test F Solubility [1]: >80.9 µg/mL
Oc1cc(C(F)(F)F)ccc1-c1nnc(N[C@H]2CCC[C@H](O)C2)c2ccccc12 (single isomer, unassigned) [Example 29]			Test F Solubility [1]: 16.1 µg/mL
Oc1cc(C(F)(F)F)ccc1-c1nnc(N[C@H]2CC[C@@H](O)C2)c2ccccc12 (single isomer, unassigned) [Example 34]	9.3 (≈ 23.9 µM)	18	
Oc1cccc(C(F)(F)F)c1-c1nnc(N[C@@H]2CCC[C@H](O)C2)c2cnccc12 (single isomer, unassigned) [Example 49]	> 80.9	405	
Oc1cccc(C(F)(F)F)c1-c1nnc(N[C@@H]2CCC[C@H](O)C2)c2cnccc12 (single isomer, unassigned) [Example 50]		47	
OC[C@@H](O)CNc1nnc(-c2ccc(C(F)(F)F)cc2O)c2ccccc12 [Example 1, (2S)-3-[[4-[2-hydroxy-4-(trifluoromethyl)phenyl]phthalazin-1-yl]amino]propane-1,2-diol]	50 (≈ 132 µM)		
OC[C@@H](O)CNc1nnc(-c2ccc(Cl)c(F)c2O)c2ccccc12 [Example 2, (2S)-3-[[4-(4-chloro-3-fluoro-2-hydroxy-phenyl)phthalazin-1-yl]amino]propane-1,2-diol]	24.6 (≈ 67.6 µM)	165	
OC[C@@H](O)CNc1nnc(-c2cc(F)c(F)cc2O)c2ccccc12 [Example 3, (2S)-3-[[4-(4,5-difluoro-2-hydroxy-phenyl)phthalazin-1-yl]amino]propane-1,2-diol]	68.6 (≈ 198 µM)	474	
OC[C@@H](O)CNc1nnc(-c2c(O)cccc2F)c2ccccc12 [Example 4, (2S)-3-[[4-(2-fluoro-6-hydroxy-phenyl)phthalazin-1-yl]amino]propane-1,2-diol]	23.2 (≈ 70.4 µM)	> 1000	
OC[C@@H](O)CNc1nnc(-c2c(O)cc(F)cc2F)c2ccccc12 [Example 8, (2S)-3-[[4-(2,4-difluoro-6-hydroxy-phenyl)phthalazin-1-yl]amino]propane-1,2-diol]	11.8 (≈ 34 µM)	159	
OC[C@@H](O)CNc1nnc(-c2c(O)cccc2Cl)c2ccccc12 [Example 10, (2S)-3-[[4-(2-chloro-6-hydroxy-phenyl)phthalazin-1-yl]amino]propane-1,2-diol]	62.9 (≈ 182 µM)	434	
OC[C@H](O)CNc1nnc(-c2ccc(C(F)(F)F)cc2O)c2ccccc12 [Example 12, (2R)-3-[[4-[2-hydroxy-4-(trifluoromethyl)phenyl]phthalazin-1-yl]amino]propane-1,2-diol]	36.4 (≈ 96 µM)		
Cc1ccc(O)c(-c2nnc(NC[C@H](O)CO)c3ccccc23)c1 [Example 13, (2S)-3-[[4-(2-hydroxy-5-methyl-phenyl)phthalazin-1-yl]amino]propane-1,2-diol]	> 65.1	> 10000	
CS(=O)(=O)c1ccc(-c2nnc(N[C@@H]3CC[C@@H](O)C3)c3ccccc23)c(O)c1 [Example 18, 2-[4-[[(1R,3R)-3-hydroxycyclopentyl]amino]phthalazin-1-yl]-5-methylsulfonyl-phenol]	> 79.9	738	
C[C@]1(O)C[C@@H](Nc2nnc(-c3c(O)cccc3F)c3ccccc23)C1 [Example 36, 3-fluoro-2-(4-(((1s,3s)-3-hydroxy-3-methylcyclobutyl)amino)phthalazin-1-yl)phenol]	43 (≈ 127 µM)		IC50 (Human NLRP3 [2]): 976 nM
Oc1cc(C(F)(F)F)ccc1-c1nnc(N[C@@H]2CCC[C@H](O)C2)c2ccncc12 [Example 43, 2-[1-[[(1R,3S)-3-hydroxycyclohexyl]amino]pyrido[3,4-d]pyridazin-4-yl]-5-(trifluoromethyl)phenol]	37.3 (≈ 92.2 µM)		
Oc1cccc(F)c1-c1nnc(N[C@@H]2CCC[C@H](O)C2)c2cnccc12 [Example 47, 3-fluoro-2-[4-[[(1R,3S)-3-hydroxycyclohexyl]amino]pyrido[3,4-d]pyridazin-1-yl]phenol]	> 70.9	68	
CCc1ccc(-c2nnc(N[C@@H]3CCC[C@H](O)C3)c3cnccc23)c(O)c1 [Example 51, 5-ethyl-2-[4-[[(1R,3S)-3-hydroxycyclohexyl]amino]pyrido[3,4-d]pyridazin-1-yl]phenol]	> 72.9	4	
C[C@]1(O)C[C@@H](Nc2nnc(-c3ccc(OC(F)(F)F)cc3O)c3ccncc23)C1 [Example 63, 2-(4-(((1s,3s)-3-hydroxy-3-methylcyclobutyl)amino)pyrido[3,4-d]pyridazin-1-yl)-5-(trifluoromethoxy)phenol]	0.8 (≈ 1.97 µM)		IC50 (Human NLRP3 [2]): 8 nM
C[C@]1(O)C[C@@H](Nc2nnc(-c3c(O)cccc3F)c3ccncc23)C1 [Example 64, 3-fluoro-2-(4-(((1s,3s)-3-hydroxy-3-methylcyclobutyl)amino)pyrido[3,4-d]pyridazin-1-yl)phenol]	> 68.1		IC50 (Human NLRP3 [2]): 111 nM
C[C@]1(O)C[C@@H](Nc2nnc(-c3ccc(Cl)cc3O)c3ccncc23)C1 [Example 68, 5-chloro-2-(4-(((1s,3s)-3-hydroxy-3-methylcyclobutyl)amino)pyrido[3,4-d]pyridazin-1-yl)phenol]			solubility (Solubility (Test E)): 44 µM (≈ 15.7 µg/mL); IC50 (Human NLRP3 [2]): 2 nM; EC50 (Human NLRP3 [3]): 19 nM
Oc1cccc(F)c1-c1nnc(N[C@@H]2CCCC[C@H]2O)c2ccncc12 [Example 77, 3-fluoro-2-(1-(((1R,2R)-2-hydroxycyclohexyl)amino)pyrido[3,4-d]pyridazin-4-yl)phenol]			EC50 (Human NLRP3 [3]): 2930 nM
Oc1cc(F)ccc1-c1nnc(N[C@@H]2CCCC[C@H]2O)c2ccncc12 [Example 78, 5-fluoro-2-(1-(((1R,2R)-2-hydroxycyclohexyl)amino)pyrido[3,4-d]pyridazin-4-yl)phenol]			solubility (Solubility (Test E)): 958 µM (≈ 340 µg/mL); EC50 (Human NLRP3 [3]): 1140 nM
Oc1cc(F)ccc1-c1nnc(N[C@@H]2CC[C@@H](O)C2)c2cnccc12 [Example 85, 5-fluoro-2-(4-(((1R,3R)-3-hydroxycyclopentyl)amino)pyrido[3,4-d]pyridazin-1-yl)phenol]			solubility (Solubility (Test E)): 68 µM (≈ 23.1 µg/mL); EC50 (Human NLRP3 [3]): 481 nM
Oc1cccc(F)c1-c1nnc(N[C@@H]2CC[C@@H](O)C2)c2ccncc12 [Example 86, 3-fluoro-2-(1-(((1R,3R)-3-hydroxycyclopentyl)amino)pyrido[3,4-d]pyridazin-4-yl)phenol]			EC50 (Human NLRP3 [3]): 6150 nM
Oc1cccc(F)c1-c1nnc(N[C@@H]2CC[C@H](O)C2)c2ccncc12 [Example 87, 3-fluoro-2-(1-(((1R,3S)-3-hydroxycyclopentyl)amino)pyrido[3,4-d]pyridazin-4-yl)phenol]			solubility (Solubility (Test E)): 25 µM (≈ 8.51 µg/mL); EC50 (Human NLRP3 [3]): 6150 nM

The next lines start with results.

solubility [1] [µg/mL]	IC50 (Human NLRP3 [2]; [4]) [nM]	Structure (SMILES)	also measured
3.6 (≈ 10 µM)		C[C@]1(O)C[C@@H](Nc2nnc(-c3cc(F)c(F)cc3O)c3ccncc23)C1 [Example 66, 4,5-difluoro-2-(4-(((1s,3s)-3-hydroxy-3-methylcyclobutyl)amino)pyrido[3,4-d]pyridazin-1-yl)phenol]	IC50 (Human NLRP3 [2]): 570 nM
21.9 (≈ 63.5 µM)	14	CC(C)(O)CNc1nnc(-c2ccc(Cl)cc2O)c2ccncc12 [Example 71, 5-chloro-2-[4-[(2-hydroxy-2-methyl-propyl)amino]pyrido[3,4-d]pyridazin-1-yl]phenol]	
5.8 (≈ 14.7 µM)	22	CC(C)(O)CNc1nnc(-c2ccc(OC(F)(F)F)cc2O)c2ccncc12 [Example 72, 2-[4-[(2-hydroxy-2-methyl-propyl)amino]pyrido[3,4-d]pyridazin-1-yl]-5-(trifluoromethoxy)phenol]	
9.4 (≈ 23.2 µM)		Oc1cc(C(F)(F)F)ccc1-c1nnc(N[C@H]2CCC[C@@H](O)C2)c2cnccc12 [Example 82, 2-[4-[[(1S,3R)-3-hydroxycyclohexyl]amino]pyrido[3,4-d]pyridazin-1-yl]-5-(trifluoromethyl)phenol]	solubility (Solubility (Test E)): 34 µM (≈ 13.7 µg/mL)
> 76.1		OC[C@@H](O)CNc1nnc(-c2ccc(C(F)(F)F)cc2O)c2ccncc12 [Example 88, (2S)-3-[[1-[2-hydroxy-4-(trifluoromethyl)phenyl]pyrido[3,4-d]pyridazin-4-yl]amino]propane-1,2-diol]	
22.1 (≈ 54.6 µM)		Oc1cc(C(F)(F)F)ccc1-c1nnc(N[C@@H]2CCC[C@H](O)C2)c2ncccc12 [Example 89, 2-[8-[[(1R,3S)-3-hydroxycyclohexyl]amino]pyrido[2,3-d]pyridazin-5-yl]-5-(trifluoromethyl)phenol]	
> 68.1		C[C@]1(O)C[C@@H](Nc2nnc(-c3c(O)cccc3F)c3cccnc23)C1 [Example 90, 3-fluoro-2-(8-(((1s,3s)-3-hydroxy-3-methylcyclobutyl)amino)pyrido[2,3-d]pyridazin-5-yl)phenol]	IC50 (Human NLRP3 [2]): 551 nM
0.5 (≈ 1.19 µM)	10	Cc1ccc2c(-c3ccc(C(F)(F)F)cc3O)nnc(N[C@@H]3CCC[C@H](O)C3)c2n1 [Example 91, 2-[8-[[(1R,3S)-3-hydroxycyclohexyl]amino]-2-methyl-pyrido[2,3-d]pyridazin-5-yl]-5-(trifluoromethyl)phenol]	
